{
  "source": "patent US12369587B2",
  "about": "“Aqueous composition of epyrifenacil, flumioxazin and pyroxasulfone” (Valent U.S.A. LLC, priority 2020, dated 2025)",
  "origin": "cited, not measured here",
  "data": [
    {"smiles": "C#CCN1C(=O)COc2cc(F)c(N3C(=O)C4=C(CCCC4)C3=O)cc21", "note": "[flumioxazin, 2-(7-fluoro-3-oxo-4-prop-2-ynyl-1,4-benzoxazin-6-yl)-4,5,6,7-tetrahydroisoindole-1,3-dione]", "values": [
      {"measurement": "water solubility", "result": 1.79, "unit": "ppm"}
    ]}
  ]
}
